From ChEMBL document CHEMBL5032500, “Adenosine A2AR/A1R Antagonists Enabling Additional H3R Antagonism for the Treatment of Parkinson's Disease” (J Med Chem, 2021)

What was measured:
[1] = molecular target: T1, Adenosine receptor A2a (Homo sapiens, UniProt P29274); test: Displacement of [3H]MSX-2 from human recombinant adenosine A2A receptor expressed in CHO cells at 1 uM by liquid scintillation counting analysis; assay type: cell-based
[2] = molecular target: T2, Adenosine receptor A3 (Homo sapiens) (UniProt P0DMS8); test: Displacement of [3H]PSB-11 from human recombinant adenosine A3 receptor expressed in CHO cells at 1 uM by liquid scintillation counting analysis; assay type: cell-based
T2 sequence (whole entry): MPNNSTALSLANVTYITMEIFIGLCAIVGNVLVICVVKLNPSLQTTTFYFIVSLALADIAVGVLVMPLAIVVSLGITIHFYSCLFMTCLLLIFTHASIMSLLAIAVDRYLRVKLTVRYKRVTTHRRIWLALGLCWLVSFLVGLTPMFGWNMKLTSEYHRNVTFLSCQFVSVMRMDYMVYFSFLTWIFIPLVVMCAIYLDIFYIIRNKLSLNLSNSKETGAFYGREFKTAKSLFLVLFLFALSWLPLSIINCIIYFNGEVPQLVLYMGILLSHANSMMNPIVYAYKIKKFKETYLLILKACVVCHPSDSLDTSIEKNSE

[3] = molecular target: T3, Adenosine receptor A2b (Homo sapiens) (UniProt P29275); test: Displacement of [3H]PSB-603 from human recombinant adenosine A2B receptor expressed in CHO cells at 1 uM by liquid scintillation counting analysis; assay type: cell-based
T3 sequence (whole entry): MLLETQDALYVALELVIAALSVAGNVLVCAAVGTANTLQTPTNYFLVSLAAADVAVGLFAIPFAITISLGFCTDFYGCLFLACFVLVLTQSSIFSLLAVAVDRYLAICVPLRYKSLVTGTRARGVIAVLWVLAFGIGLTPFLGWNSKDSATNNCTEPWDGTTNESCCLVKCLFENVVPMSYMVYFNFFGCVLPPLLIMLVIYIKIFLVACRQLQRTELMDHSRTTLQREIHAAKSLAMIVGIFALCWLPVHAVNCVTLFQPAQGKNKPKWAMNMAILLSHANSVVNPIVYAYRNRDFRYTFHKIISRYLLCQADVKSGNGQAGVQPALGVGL

[4] = molecular target: T4, Adenosine receptor A1 (Homo sapiens) (UniProt P30542); test: Displacement of [3H]CCPA from human recombinant adenosine A1 receptor expressed in CHO cells at 1 uM by liquid scintillation counting analysis; assay type: cell-based
T4 sequence (whole entry): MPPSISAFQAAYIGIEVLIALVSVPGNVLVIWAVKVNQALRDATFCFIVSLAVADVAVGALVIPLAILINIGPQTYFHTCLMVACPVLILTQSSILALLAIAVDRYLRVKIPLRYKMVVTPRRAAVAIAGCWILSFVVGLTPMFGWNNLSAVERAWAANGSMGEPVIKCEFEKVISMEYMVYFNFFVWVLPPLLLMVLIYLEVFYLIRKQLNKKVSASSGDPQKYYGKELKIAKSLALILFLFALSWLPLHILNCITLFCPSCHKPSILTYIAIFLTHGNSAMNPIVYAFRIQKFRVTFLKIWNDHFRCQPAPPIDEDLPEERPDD

[5] = molecular target: Histamine H3 receptor (Homo sapiens, UniProt Q9Y5N1); test: Displacement of [3H] N-alpha methylhistamine from human recombinant histamine H3 receptor expressed in HEK293 cells measured after 90 mins; assay type: cell-based
Histamine H3 receptor, sequence (Q9Y5N1 whole entry): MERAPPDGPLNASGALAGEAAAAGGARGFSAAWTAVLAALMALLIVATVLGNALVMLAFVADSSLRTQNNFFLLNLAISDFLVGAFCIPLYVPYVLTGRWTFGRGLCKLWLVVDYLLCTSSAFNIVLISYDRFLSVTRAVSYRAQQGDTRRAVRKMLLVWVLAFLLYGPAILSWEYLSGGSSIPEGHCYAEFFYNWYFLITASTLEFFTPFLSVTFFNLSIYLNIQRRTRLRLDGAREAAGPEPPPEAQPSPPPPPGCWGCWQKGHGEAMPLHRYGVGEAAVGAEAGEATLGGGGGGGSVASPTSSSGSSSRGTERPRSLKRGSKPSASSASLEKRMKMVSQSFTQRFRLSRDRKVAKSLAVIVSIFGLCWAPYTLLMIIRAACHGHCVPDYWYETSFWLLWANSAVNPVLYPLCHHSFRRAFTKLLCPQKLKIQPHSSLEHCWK

[6] = molecular target: T1, Adenosine receptor A2a; test: Displacement of [3H]MSX-2 from human recombinant adenosine A2A receptor expressed in CHO cells by liquid scintillation counting analysis; assay type: cell-based
[7] = molecular target: T5, Adenosine receptor A1 (Homo sapiens, UniProt P30542); test: Displacement of [3H]CCPA from human recombinant adenosine A1 receptor expressed in CHO cells by liquid scintillation counting analysis; assay type: cell-based
T5 sequence (P30542 whole entry): T4 sequence (whole entry)

[8] = molecular target: T6, Adenosine receptor A3 (Homo sapiens, UniProt P0DMS8); test: Displacement of [3H]PSB-11 from human recombinant adenosine A3 receptor expressed in CHO cells by liquid scintillation counting analysis; assay type: cell-based
T6 sequence (P0DMS8 whole entry): T2 sequence (whole entry)

[9] = molecular target: T7, Adenosine receptor A2b (Homo sapiens, UniProt P29275); test: Displacement of [3H]PSB-603 from human recombinant adenosine A2B receptor expressed in CHO cells by liquid scintillation counting analysis; assay type: cell-based
T7 sequence (P29275 whole entry): T3 sequence (whole entry)

[10] = test system: SH-SY5Y; test: Cytotoxicity against human SH-SY5Y cells assessed as remaining cell viability at 1000 nM incubated for 24 hrs; assay type: functional

T1 sequence (P29274 whole entry): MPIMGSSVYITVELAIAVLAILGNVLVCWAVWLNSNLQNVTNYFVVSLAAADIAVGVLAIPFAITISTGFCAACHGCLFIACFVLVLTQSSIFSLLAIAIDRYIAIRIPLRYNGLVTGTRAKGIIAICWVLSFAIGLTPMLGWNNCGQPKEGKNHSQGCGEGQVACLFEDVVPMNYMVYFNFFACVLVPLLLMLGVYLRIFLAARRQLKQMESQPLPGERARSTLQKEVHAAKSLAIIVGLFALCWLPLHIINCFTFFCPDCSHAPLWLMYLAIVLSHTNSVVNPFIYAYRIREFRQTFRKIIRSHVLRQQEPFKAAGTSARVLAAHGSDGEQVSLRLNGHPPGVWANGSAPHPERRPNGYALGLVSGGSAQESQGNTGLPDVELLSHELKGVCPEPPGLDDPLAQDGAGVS

| Structure (SMILES) | inhibition [1] | inhibition [2] | inhibition [3] | inhibition [4] | Ki [5] | Ki [6] | Ki [7] | Ki [8] | Ki [9] | inhibition ([2]; filed as antagonist) | Activity [10] |
| --- | --- | --- | --- | --- | --- | --- | --- | --- | --- | --- | --- |
| O=C(c1ccc(OCCCc2c[nH]cn2)cc1)C1CC1 | -1% | 3% | 8% | -6% | – | – | – | – | – | – | – |
| Nc1nc(-c2ccc(OCCCN3CCCCC3)cc2)c2c(n1)-c1ccccc1C2 | – | 24% | 28% | – | 0.49 nM | 717 nM | 2510 nM | > 1000 nM | > 1000 nM | – | – |
| Nc1nc(-c2ccc(OCCCN3CCCCC3)cc2)c2c(n1)-c1ccc(OCCCN3CCCCC3)cc1C2 | – | – | 13% | 23% | 0.6 nM | 941 nM | > 1000 nM | > 1000 nM | > 1000 nM | 50% | – |
| O=C(c1ccc(OCCCN2CCCCC2)cc1)C1CC1 | -3% | -2% | 0% | -5% | – | > 1000 nM | > 1000 nM | > 1000 nM | > 1000 nM | – | – |
| Nc1nc(-c2ccccc2)c2c(n1)-c1ccc(OCCCN3CCCCC3)cc1C2=O | – | 12% | – | – | 36 nM | 142 nM | 367 nM | > 1000 nM | 114 nM | – | – |
| Nc1nc(-c2ccccc2)c2c(n1)-c1ccc(OCCCN3CCCCC3)cc1C2 | 34% | 39% | 34% | 24% | 2.3 nM | > 1000 nM | > 1000 nM | > 1000 nM | > 1000 nM | – | – |
| COCCOc1ccc(N2CCN(CCn3ncc4c3nc(N)n3nc(-c5ccco5)nc43)CC2)cc1 [PRELADENANT] | – | – | – | – | – | – | – | > 1000 nM | > 1000 nM | – | – |
| Nc1nc(-c2ccccc2)c2c(n1)-c1cc(OCCCN3CCCCC3)ccc1C2 | – | – | – | – | 4.5 nM | 4.85 nM | 18.7 nM | 231 nM | 58.1 nM | – | >75% |
